{"source": "paper PMC11555678", "about": "“Improved Broad Spectrum Antifungal Drug Synergies with Cryptomycin, a Cdc50-Inspired Antifungal Peptide” (ACS Infectious Diseases, 2024)", "key": {"[1]": {"test_system": "C. neoformans with macrophage J774 cells", "assay": "Phagocytosis assay", "format": "cell-based, Cryptococcus neoformans / murine macrophage", "details": "sub-MIC peptide-treated yeast cells coincubated with macrophages for 2 h", "method": "The J774A. I macrophage-like cell line (ATCC# TIB-67) was grown in DMEM supplemented with 10% FBS, 5% penstrep, and L-glutamine (1×), and passed 2–3 times per week. The cells were never used after 5 passages. Phagocytosis assay was performed in a 48-well plate using J774 cells (5 × 10^4) in 0.5 mL of fresh DMEM were added to each well and incubated at 37 °C, 5% CO2. To activate the macrophages, 50 units/mL interferon γ (IFN-γ; Invitrogen) and 1 μg/mL lipopolysaccharide (LPS; Sigma) were added to each well. Yeast cells were adjusted to 2.4 × 10^6 cfu/mL in RPMI1640. One mL of cell suspension was aliquoted into a 12 mL vented culture tube. The peptide was added to each tube, and the cells were incubated for 30 min at 30 °C, 225 rpm. The cells were pelleted and resuspended in 100 μL of 20% mouse compliment in PBS. The cells were opsonized at room temperature for 30 min. After opsonization, 10 μL of cell suspension was added to each well. Yeast cells were coincubated with macrophages for 2 h at 37 °C in 5% CO2 in technical triplicates per condition. After coincubation, the supernatant was removed, and the wells were washed 3 times with 200 μL DMEM + penstrep, and then fixed with 200 μL ice cold methanol for 30 min. […] The images were quantified using phagocytosis rate, % phagocytosis, and phagocytic index, eqs 3–5, between 200 and 300 macrophages were counted per technical replicate [drawing 3] […]"}, "[2]": {"test_system": "C. neoformans H99", "format": "cell-based, Cryptococcus neoformans", "details": "2× MIC, by 2 h, no rebound by 8 h; RPMI1640, 30 °C, 225 rpm, 2 million cfu/mL", "method": "Culture tubes were prepared with aliquots of 2.0 mL of RPMI1640 (containing Q, MOPS, pH = 7, no phenol red). The tubes were sealed to prevent evaporation and were equilibrated with the incubation chamber overnight, at 30 °C. On the day of the experiment, overnight yeast cultures in YPD were washed twice with DD-H2O and resuspended in DD-H2O. The OD600 of the cell suspension was adjusted to 4.6, ≈2 × 10^6 cfu/mL, in DD-H2O. A 200 μL aliquot of adjusted cell suspension was added systematically to each tube, followed by 200 μL sampling for the 0 h time point. Immediately after sampling, the antifungal compounds were added, and the tubes were placed in the incubator at 30 °C with shaking at 225 rpm. The sampled aliquot was transferred to a 96-well plate and serially diluted six times, 10-fold each time. The resulting cell suspensions were spotted onto YPD plates in a grid pattern of 5 μL per spot. Subsequently, tubes were briefly removed from the incubator, and 100 μL aliquots were sampled at 2, 4, 6, and 8 h time points. Cells were counted on the YPD plates at either 24 or 48 h after plate spotting, depending on when the colonies were countable. Images of the YPD plates were recorded on the Bio-Rad Gel imager after 48 h of incubation at 30 °C. […] 2 C = number of colonies counted, Df = dilution factor = 10^n–1, n = column that the cells were counted, and Vf = volume factor = 1/0.005 mL."}, "[3]": {"test_system": "Cn cdc50Δ", "assay": "Intracellular ROS detection (H2DCFDA, flow cytometry)", "format": "cell-based, Cryptococcus neoformans", "details": "30 min exposure in YPD", "method": "(§1) Protocol was carried out in accordance with previously reported methodologies.[35] Yeast cells were grown ON in liquid YPD, washed once in H2O, and resuspended in fresh YPD. The OD600 was adjusted to 0.2 in YPD. Cells were incubated for 3 h at 30 °C, 225 rpm, and then stained with 10 μM H2DCFDA for 2 h at 30 °C, 225 rpm, in the dark. Stained cells were washed twice with DD-H2O and resuspended in the minimal amount of YPD or calcium-enriched YPD needed to inoculate each technical replicate with cells. Each condition was prepared with four technical replicates. In the dark, the stained cells were titrated with KKOO-NH2 from 0.25 to 1× MIC and incubated for 30 min at 30 °C, 225 rpm, in 1 mL of YPD in 12 mL of vented culture tubes. After treatment, cells were transferred to 1.5 mL Eppendorf and centrifuged for 5 min at 2000 rpm. The cells were washed once with 0.5 mL of PBS and resuspended in 0.2 mL of PBS, and stored on ice for live-cell flow analysis, BD FACS Via (Franklyn Lakes, NJ). 100,000 events were recorded, and singlets were gated from SSC-A × FSC-A plot. Mean fluorescence signal intensity from the probe was plotted as a function of peptide concentration. Cells that remained after FACS were pooled based on their condition and imaged under the fluorescence microscope, Zeiss Axioscope 5."}, "[4]": {"test_system": "Cn H99", "assay": "Intracellular ROS detection (H2DCFDA, flow cytometry)", "format": "cell-based, Cryptococcus neoformans", "details": "30 min exposure in YPD", "method": "as §1"}, "[5]": {"test_system": "C. neoformans H99", "details": "Cn wild-type, previous study; cited from earlier work"}, "[6]": {"test_system": "C. neoformans cdc50Δ", "details": "Cdc50 deleted, previous study; cited from earlier work", "method": "Our previous studies have identified that the Cn cdc50Δ mutant was highly susceptible to CAS compared to the wild-type.[23] The minimum inhibitory concentration (MIC) of CAS was reduced 4-fold from 16 to 4 μg/mL when Cdc50 was deleted. The surprising observation that loss of Cdc50 sensitized Cryptococcus to CAS led to an obvious question: why did a mutation to a seemingly disparate cellular system-membrane homeostasis proteins have such a dramatic effect on the susceptibility to cell wall biosynthesis inhibitors? It was subsequently discovered that Cdc50 in C. neoformans is unique because it h ..."}, "[7]": {"test_system": "C. neoformans MRL862", "details": "cited from earlier work", "method": "First, the MICs of the peptides and commonly used antifungal drugs were assessed on their own. A full accounting of MICs of intermediate SAR screen peptides is reported in Supporting Information, Table S1."}}, "note": "Square brackets hold non-standard residues; d marks the D form. Peptide text beside a SMILES is read from it. * marks the point of attachment. Myristoyl = CCCCCCCCCCCCCC(=O)*; Orn = NCCC[C@H](N)C(=O)O", "data": [{"molecule": "CCCCCCCCCCCCCC(=O)N[C@@H](Cc1c[nH]c2ccccc12)C(=O)NCC(=O)NCC(=O)N[C@H](C(=O)N[C@@H](CCCN)C(=O)N[C@@H](CCCN)C(=O)N[C@@H](CC(N)=O)C(=O)N[C@@H](Cc1ccc(O)cc1)C(=O)N[C@@H](C)C(N)=O)[C@@H](C)CC", "note": "[KKOO-NH2] (Myristoyl-WGGI[Orn][Orn]NYA-NH2)", "values": [{"measurement": "phagocytic index or phagocytosis rate vs control", "setting": "[1]", "result": "No statistically significant differences"}, {"measurement": "Cryptococcus cells killed", "setting": "[2]", "result": "> 99.9", "unit": "%"}, {"measurement": "lowest peptide concentration with elevated ROS production", "setting": "[3]", "result": 1, "unit": "µg/mL"}, {"measurement": "lowest peptide concentration with elevated ROS production", "setting": "[4]", "result": 4, "unit": "µg/mL"}]}, {"molecule": "CC[C@H](C)C[C@H](C)CCCCCCCCC(=O)N[C@H]1C[C@@H](O)[C@@H](NCCN)NC(=O)[C@@H]2[C@@H](O)CCN2C(=O)[C@H]([C@H](O)CCN)NC(=O)[C@H]([C@H](O)[C@@H](O)c2ccc(O)cc2)NC(=O)[C@@H]2C[C@@H](O)CN2C(=O)[C@H]([C@@H](C)O)NC1=O", "note": "[CAS, caspofungin]", "values": [{"measurement": "MIC", "setting": "[5]", "result": 16, "unit": "µg/mL"}, {"measurement": "MIC", "setting": "[6]", "result": 4, "unit": "µg/mL"}]}, {"molecule": "OC(Cn1cncn1)(Cn1cncn1)c1ccc(F)cc1F", "note": "[FLC, fluconazole]", "values": [{"measurement": "MIC, reported value", "setting": "[7]", "result": 128, "unit": "µg/mL"}]}]}
